The term ED50 denotes the midpoint of the dose-response relation. Usually MIC stands for the least concentration at which growth counts as inhibited.

The text below walks through data of patent US4188402A, “Derivatives of the D-threo-1-phenyl-2-trifluoroacetamido-1,3-propandediol” (Clesa S.p.A., priority 1977, dated 1980).

Series [1] concerns multocide NCTC 10722 Pasteurella. In words: PD50 in experimental infection of the mouse by intraperitoneal inoculation (Table 3). The format is in vivo. Conditions: 120 h, treatment time 5 days, about 100 times the lethal amount at 50% i.p., Spearman-Karber. The text has this:
The study of the antibiotic activity of the derivatives of the present invention was completed by the determination of PD50 in experimental infections from multocide NCTC 10722 Pasteurella induced in the mouse by intraperitoneal inoculation of a bacterial amount equal to about 100 times the lethal amount at 50%. The determination of PD50 relating to the examined derivatives has been carried out according to the method of Spearman-Karber (L. Cavalli-Sforza "Analisi statistica per medici e biologi e analisi del dosaggio biologico"--Ed. Universitarie Boringhieri--Torino--1961, pages 173-175).

In series [2] the test system is Strep. faecalis ATCC 10541. Briefly: MIC, agar dilutions in a double series, in vitro (Table 2). The format is cell-based. Conditions: Enterococcus faecalis, ATCC10541, Strep. faecalis ATCC 10541, agar dilution. As to the method:
(§1) Insofar as the study of the antibacterial activity spectrum is concerned, this was performed by using the method of agar dilutions in a double series. The minimum inhibitory concentration (MIC) was performed against grampositive and gram-negative microorganisms as well as Proteus.
For orientation: In agar dilution, organisms are placed on agar that contains the substance at set levels.

For the next series, the system named is Strep. agalactiae 4 b. The series is described as above. The format is cell-based. Conditions: Streptococcus agalactiae, agar dilution. As to the method: as §1
For series [3], the system named is Past. multocide NCTC 10722. The series is described as above. The format is cell-based. Conditions: Past. multocide NCTC 10722, agar dilution. As to the method:
as §1

The next series has as its system Salmonelli Typhi M-VI. The series is described as above. Type of series: cell-based. The protocol: as §1
A further series relates to S. aureus Oxford. The description is as above. Type of series: cell-based. Conditions: Staphylococcus aureus, agar dilution. The protocol:
as §1

The next series relates to Shighelli Boydii 4. Described as above. The format is cell-based. Conditions: Shighelli Boydii 4, agar dilution. As to the method:
as §1

Another series concerns Proteus morgani N 520. The series is described as above. Type of series: cell-based. Conditions: Proteus morgani N 520, agar dilution. As to the method: as §1
A further series deals with E. Coli K12. The series is described as above. The format is cell-based. Conditions: Escherichia coli, E. Coli K12, agar dilution. As to the method:
as §1

For series [4], the system named is Streptococcus faecalis Z 61. Briefly: MIC in vitro against thiamphenicol-resistant strain. The format is cell-based. Conditions: Enterococcus faecalis, Z61, Streptococcus faecalis Z 61, thiamphenicol-resistant. The text has this: (§2) Furthermore, the compounds of the present invention show a certain bacterial activity, both "in vitro" and in the presence of rabbit serum, in respect of some microorganism strains resistant against thiamphenicol (ie., […]; see Merck Index Ninth Edition, page 9034) as it appears from the following results: […]

The subject of series [5] is Staphylococcus aureus 4180. The series is described as above. The format is cell-based. Conditions: Staphylococcus aureus 4180, thiamphenicol-resistant.
Description: as §2

Series [6] concerns Staphylococcus albus 1238. The description is as above. Conditions: Staphylococcus albus 1238, thiamphenicol-resistant. Type of series: cell-based.
Description: as §2

Series [7] relates to Streptococcus faecalis Z 20. The description is as above. Type of series: cell-based. Conditions: Enterococcus faecalis, Z20, Streptococcus faecalis Z 20, thiamphenicol-resistant.
Description: as §2

The next series deals with Streptococcus faecalis. Briefly: MIC in culture broth, in the presence of rabbit serum, against thiamphenicol-resistant strain. Type of series: cell-based. Conditions: Enterococcus faecalis. The text has this:
(§3) Furthermore, the compounds of the present invention show a certain bacterial activity, both "in vitro" and in the presence of rabbit serum, in respect of some microorganism strains resistant against thiamphenicol (ie., […]; see Merck Index Ninth Edition, page 9034) as it appears from the following results:
(§4) ** = tests carried out in culture broth, in the presence of rabbit serum.

Series [8] has as its system Pseudomonas aeruginosa 50541. The series is described as above. Conditions: Pseudomonas aeruginosa 50541, thiamphenicol-resistant. Type of series: cell-based.
Description: as §3, §4

The nature of series [9]: Hydrolysis of the esters in the animal organism. Type of series: in vivo. Conditions: ester at the alcoholic function.
Series [10] has as its system grampositive and gram-negative microorganisms as well as Proteus. In words: Antibacterial activity of the esterified derivatives compared with Z 2100. Conditions: after hydrolysis in the animal organism. The protocol:
as §1

Values after ≈ are worked out from the molar mass of the structure shown.

`CSc1ccc([C@@H](O)[C@@H](CO)NC(=O)C(F)(F)F)cc1` [Z 2109, D-(-)-threo-1-(p-methylmercaptophenyl)-2-trifluoroacetamido-1,3-propanediol] had an ED50 in [1] (NCTC10722, po, per os) of 16.6 mg/kg. For the same compound, the MIC in series [2] turned out to be 32 µg/mL (≈ 103 µM); in the series with Strep. agalactiae 4 b, 64 µg/mL (≈ 207 µM); in series [3], 4 µg/mL (≈ 12.9 µM); against Salmonelli Typhi M-VI, 64 µg/mL (≈ 207 µM); in the series on S. aureus Oxford it was 32 µg/mL (≈ 103 µM); with Shighelli Boydii 4 it was 32 µg/mL (≈ 103 µM). The MIC against Proteus morgani N 520 came to 4 µg/mL (≈ 12.9 µM); in the series on E. Coli K12 it was 16 µg/mL (≈ 51.7 µM).
Take `CS(=O)(=O)c1ccc([C@@H](O)[C@@H](CO)NC(=O)C(F)(F)F)cc1` [Z 2100, D-(+)-threo-1-(p-methanesulphonylphenyl)-2-trifluoroacetamido-1,3-propanediol]: the MIC turned out to be 80 µg/mL (≈ 234 µM) in series [4]; 40 µg/mL (≈ 117 µM) in [5]; 40 µg/mL (≈ 117 µM) in series [6]; 40 µg/mL (≈ 117 µM) in series [7]; 80 µg/mL with Streptococcus faecalis; 80 µg/mL in series [8]. The MIC in series [2] worked out at 8 µg/mL (≈ 23.4 µM); in the series on Strep. agalactiae 4 b it was 16 µg/mL (≈ 46.9 µM); in series [3], 2 µg/mL (≈ 5.86 µM); against Salmonelli Typhi M-VI, 32 µg/mL (≈ 93.8 µM); with S. aureus Oxford, 16 µg/mL (≈ 46.9 µM); against Proteus morgani N 520, 8 µg/mL (≈ 23.4 µM). The compound further had an MIC with E. Coli K12 of 64 µg/mL (≈ 188 µM). Moreover, in series [1] (NCTC10722, po, per os), the ED50 is 19 mg/kg.
In the case of `CS(=O)(=O)c1ccc([C@@H](O)[C@@H](CO)NC(=O)C(Cl)Cl)cc1` [Thiamphenicol, reference compound], the MIC amounted to 160 µg/mL (≈ 449 µM) in series [4]; 160 µg/mL (≈ 449 µM) in series [5]; 160 µg/mL (≈ 449 µM) in [6]; 160 µg/mL (≈ 449 µM) in series [7]; 320 µg/mL with Streptococcus faecalis; 160 µg/mL in series [8].
Regarding `CCCCCCCCCCCCCCCC(=O)OC[C@@H](NC(=O)C(F)(F)F)[C@H](O)c1ccc(S(C)(=O)=O)cc1` [Z 2112, D-(+)-threo-1-(p-methanesulphonylphenyl)-2-trifluoroacetamido-3-palmitoyloxy-1-propanol], the “hydrolysis in the animal organism” value in series [9] is “quickly hydrolyzed in the animal organism”. This compound gave a median effective dose (ED50) in series [1] (NCTC10722, po, per os) of 21 mg/kg. Moreover, the “activity relative to Z 2100” value in series [10] is given as “show the same activity as Z 2100”.
With `CS(=O)(=O)c1ccc([C@@H](O)[C@@H](COC(=O)CN)NC(=O)C(F)(F)F)cc1` [Z 2117, D-(+)-threo-1-(p-methanesulphonylphenyl)-2-trifluoroacetamido-3-aminoacetoxy-1-propanol], the “hydrolysis in the animal organism” value in series [9] was “quickly hydrolyzed in the animal organism”. The 50% effective dose (ED50) in series [1] (NCTC10722, sc, subcutaneous) is 14.3 mg/kg. Further, in series [10], the “activity relative to Z 2100” value is given as “show the same activity as Z 2100”.
